Experimental data taken from patent publication US9695155B2, “Herbicidal substituted pyrimidinyloxy benzene compounds” (E. I. DU PONT DE NEMOURS AND COMPANY, priority 2013, dated 2017).

Experiments:
[1] = test system: barnyardgrass; assay: Test C preemergence; assay type: in vivo, Echinochloa crus-galli; conditions: for Barnyardgrass plant response rating: preemergence
Outline: (§1)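 Visual ratings on a 0–100 scale (100 = complete control) were made versus untreated controls after 13–15 greenhouse days. Chemicals in a surfactant-containing non-phytotoxic solvent were applied either preemergence to seeds in loam–sand soil or postemergence to 1- to 4-leaf plants 2–18 cm tall.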

[2] = test system: kochia; assay: Test C postemergence; assay type: in vivo, Kochia scoparia; conditions: for Plant response rating, Kochia: Postemergence
Outline: as §1

[3] = test system: yellow nutsedge; assay: Test C postemergence; assay type: in vivo, Cyperus esculentus; conditions: for Plant response rating, Nutsedge, Yellow: Postemergence, scale 0 to 100 (0 no effect, 100 complete control)
Outline: as §1

[4] = test system: giant foxtail; assay: Test C preemergence; assay type: in vivo, Setaria faberii; conditions: for Foxtail, Giant plant response rating: preemergence
Outline: as §1

[5] = test system: pigweed; assay: Test A preemergence; assay type: in vivo, Amaranthus retroflexus
Outline: (§2)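 Visual injury scored 0–100 (100 = complete control) against untreated controls about 10 days after treatment in a greenhouse. Test chemicals, formulated with surfactant in non-phytotoxic solvent, were sprayed on soil preemergence or on 2-10 cm, one- to two-leaf plants postemergence.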

[6] = test system: corn; assay: Test C postemergence; assay type: in vivo, Zea mays; conditions: for Plant response rating, Corn: Postemergence
Outline: as §1

[7] = test system: barnyardgrass; assay: Test C postemergence; assay type: in vivo, Echinochloa crus-galli; conditions: for Plant response rating, Barnyardgrass: Postemergence
Outline: as §1

[8] = test system: Italian ryegrass; assay: Test C postemergence; assay type: in vivo, Lolium multiflorum; conditions: for Plant response rating, Ryegrass, Italian: Postemergence, scale 0 to 100 (0 no effect, 100 complete control)
Outline: as §1

[9] = test system: yellow nutsedge; assay: Test C preemergence; assay type: in vivo, Cyperus esculentus; conditions: for Nutsedge, Yellow plant response rating: preemergence
Outline: as §1

[10] = test system: galium; assay: Test C postemergence; assay type: in vivo, Galium aparine; conditions: for Plant response rating, Galium: Postemergence
Outline: as §1

[11] = test system: pigweed; assay: Test C preemergence; assay type: in vivo, Amaranthus retroflexus; conditions: for Pigweed plant response rating: preemergence
Outline: as §1

[12] = test system: wheat, winter; assay: Test C postemergence; assay type: in vivo, Triticum aestivum; conditions: for Plant response rating, Wheat: Postemergence, scale 0 to 100 (0 no effect, 100 complete control)
Outline: as §1

[13] = test system: giant foxtail; assay: Test A preemergence; assay type: in vivo, Setaria faberii
Outline: as §2

[14] = test system: rice; assay: Test B flooded paddy test; assay type: in vivo, Oryza sativa; conditions: Flood, 250 g ai/ha; 0 to 100 scale where 0 is no effect and 100 is complete control
Outline: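 Compound added straight to paddy water, with pots kept flooded 3 cm above soil, on plants grown to the 2-leaf stage. Visual scoring 0-100 (100 = complete control) against untreated controls after 13 to 15 greenhouse days.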

[15] = 16 g ai/ha, scale 0 to 100 (0 no effect, 100 complete control)
[16] = 62 g ai/ha, scale 0 (no effect) to 100 (complete control)
[17] = 125 g ai/ha, scale 0 (no effect) to 100 (complete control)
[18] = Preemergence, 31 g ai/ha, scale 0 to 100, 0 no effect, 100 complete control
[19] = 16 g ai/ha, postemergence, visual rating, scale 0 to 100 (0 no effect, 100 complete control), 13 to 15 days
[20] = 31 g ai/ha, scale 0 to 100 (0 no effect, 100 complete control), 13 to 15 days
[21] = 62 g ai/ha, scale 0 to 100 (0 no effect, 100 complete control)
[22] = 125 g ai/ha, 0 to 100 scale where 0 is no effect and 100 is complete control
[23] = 500 g ai/ha, 0 to 100 scale, 0 no effect, 100 complete control, approx. 10 days

FCc1cccc(Oc2ncc(Cl)cn2)c1-n1cc(Br)cn1 [Compound 83]
Barnyardgrass plant response rating [1, 15]: 5
Barnyardgrass plant response rating [1, 16]: 45
Barnyardgrass plant response rating [1, 17]: 90
Plant response rating, Barnyardgrass [1, 18]: 5
Kochia plant response rating [2, 19]: 60
Plant response rating (0 to 100), Kochia ([2]; 125 g ai/ha, postemergence): 95
Plant response rating, Kochia [2, 20]: 70
Plant response rating, Kochia [2, 21]: 90
Plant response rating (0 to 100), Nutsedge, Yellow ([3]; 125 g ai/ha, postemergence): 5
Plant response rating, Nutsedge, Yellow ([3]; 31 g ai/ha, 13 to 15 days): 0
Plant response rating, Nutsedge, Yellow ([3]; 62 g ai/ha): 5
Foxtail, Giant plant response rating [4, 15]: 5
Foxtail, Giant plant response rating [4, 16]: 100
Foxtail, Giant plant response rating [4, 17]: 100
Plant response rating, Foxtail, Giant [4, 18]: 75
Plant response rating, Pigweed [5, 22]: 100
Pigweed plant response rating [5, 23]: 100
Corn plant response rating [6, 19]: 0
Plant response rating (0 to 100), Corn ([6]; 125 g ai/ha, postemergence): 10
Plant response rating, Corn [6, 20]: 5
Plant response rating, Corn [6, 21]: 5
Barnyardgrass plant response rating [7, 19]: 5
Plant response rating (0 to 100), Barnyardgrass ([7]; 125 g ai/ha, postemergence): 5
Plant response rating, Barnyardgrass [7, 20]: 5
Plant response rating, Barnyardgrass [7, 21]: 5
Plant response rating (0 to 100), Ryegrass, Italian ([8]; 125 g ai/ha, postemergence): 5
Plant response rating, Ryegrass, Italian ([8]; 31 g ai/ha, 13 to 15 days): 0
Plant response rating, Ryegrass, Italian ([8]; 62 g ai/ha): 5
Nutsedge, Yellow plant response rating [9, 15]: 0
Nutsedge, Yellow plant response rating [9, 16]: 0
Nutsedge, Yellow plant response rating [9, 17]: 15
Plant response rating, Nutsedge, Yellow [9, 18]: 0
Galium plant response rating [10, 19]: 50
Plant response rating (0 to 100), Galium ([10]; 125 g ai/ha, postemergence): 60
Plant response rating, Galium [10, 20]: 65
Plant response rating, Galium [10, 21]: 70
Pigweed plant response rating [11, 15]: 85
Pigweed plant response rating [11, 16]: 100
Pigweed plant response rating [11, 17]: 100
Plant response rating, Pigweed [11, 18]: 100
Plant response rating (0 to 100), Wheat ([12]; 125 g ai/ha, postemergence): 5
Plant response rating, Wheat ([12]; 31 g ai/ha, 13 to 15 days): 0
Plant response rating, Wheat ([12]; 62 g ai/ha): 0
Plant response rating, Foxtail, Giant [13, 22]: 100
Foxtail, Giant plant response rating [13, 23]: 100
Plant response rating, Rice [14]: 0
